Source: US20100298141A1, “SUBSTITUTED PYRIDINE N-OXIDE HERBICIDES” (E. I. DU PONT DE NEMOURS AND COMPANY, priority 2007, published 2010)

What was measured:
Experiment in all cases: Test C pre-/postemergence test
blackgrass = type: in vivo, Alopecurus myosuroides
In short: (§1)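 Seeds were planted and treated preemergence with test chemical in a non-phytotoxic solvent mixture containing surfactant. Postemergence applications of the same formulation went onto plants 2 to 18 cm tall (1- to 4-leaf stage). A dash marks no test result.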

Russian thistle = type: in vivo, Salsola kali; conditions: for Plant response rating, Russian Thistle: 31 g ai/ha, scale 0 to 100 (0 no effect, 100 complete control)
Excerpt: Seeds of plant species selected from blackgrass (Alopecurus myosuroides), downy brome (Bromus tectorum), green foxtail (Setaria viridis), Italian ryegrass (Lolium multiflorum), wheat (Triticum aestivum), wild oat (Avena fatua), catchweed bedstraw (Galium aparine), Russian thistle (Salsola kali), […] (Cynodon dactylon), Surinam grass (Brachiaria decumbens), cocklebur (Xanthium strumarium), corn (Zea mays), crabgrass (Digitaria sanguinalis), woolly cupgrass (Eriochloa villosa), giant foxtail (Setaria faberii), Goosegrass (Eleusin indica), johnsongrass (Sorghum halepense), kochia (Kochia scoparia), lambsquarters (Chenopodium album), morningglory (Ipomoea coccinea), eastern black nightshade (Solanum ptycanthum), yellow nutsedge (Cyperus esculentus), pigweed (Amaranthus retroflexus), common ragweed (Ambrosia elation), soybean (Glycine max), common (oilseed) sunflower (Helianthus annuus), and velvetleaf (Abutilon theophrasti) were planted and treated preemergence with test chemicals formulated in a non-phytotoxic solvent mixture which included a surfactant. At the same time, plants selected from these crop and weed species and also winter barley (Hordeum vulgare), canarygrass (Phalaris minor), and chickweed (Stellaria media) were treated with postemergence applications of some of the test chemicals formulated in the same manner. Plants ranged in height from 2 to 18 cm (1- to 4-leaf stage) for postemergence treatments. […] At time of treatment, test pots were flooded to 3 cm above the soil surface, treated by application of test compounds directly to the paddy water, and then maintained at that water depth for the duration of the test. […] A dash (-) response means no test result.

corn = type: in vivo, Zea mays
In short: as §1

woolly cupgrass = type: in vivo, Eriochloa villosa
In short: as §1

[1] = 62 g ai/ha, Preemergence, scale 0 to 100
[2] = Preemergence, 31 g ai/ha, scale 0 to 100 (0 no effect, 100 complete control)
[3] = preemergence, 125 g ai/ha, scale 0 (no effect) to 100 (complete control)
[4] = 125 g ai/ha, preemergence, scale 0 (no effect) to 100 (complete control)
[5] = preemergence, 250 g ai/ha, scale 0 (no effect) to 100 (complete control)
[6] = Postemergence, 62 g ai/ha, scale 0 to 100, 0 no effect, 100 complete control
[7] = Postemergence, 125 g ai/ha, scale 0 to 100, 0 no effect, 100 complete control
[8] = Postemergence, 250 g ai/ha, scale 0 to 100, 0 no effect, 100 complete control

Row | SMILES | Blackgrass plant response rating (blackgrass; [1]) | Plant response rating, Blackgrass (blackgrass; [2]) | Russian Thistle plant response rating (Russian thistle; [1]) | Plant response rating, Russian Thistle (Russian thistle; Preemergence) | Corn plant response rating (corn; [1]) | Plant response rating, Corn (corn; [2]) | Cupgrass, Woolly plant response rating (woolly cupgrass; [1]) | Plant response rating, Cupgrass, Woolly (woolly cupgrass; [2]) | Blackgrass plant response rating (blackgrass; [4]) | Blackgrass plant response rating (blackgrass; [5]) | Russian Thistle plant response rating (Russian thistle; [4]) | Russian Thistle plant response rating (Russian thistle; [5]) | Corn plant response rating (corn; [4]) | Corn plant response rating (corn; [5]) | Cupgrass, Woolly plant response rating (woolly cupgrass; [4]) | Cupgrass, Woolly plant response rating (woolly cupgrass; [5]) | further results
1 | Cn1nc(C(F)(F)F)c(CS(=O)(=O)c2cc(C(C)(C)C)cc[n+]2[O-])c1OC(F)F [Compound 25] | 0 | 0 | 100 | 100 | 20 | 0 | 60 | 40 |  |  |  |  |  |  |  |  | Plant response rating (0 to 100), Blackgrass (blackgrass; Preemergence, 250 g ai/ha): 0; Blackgrass plant response rating (blackgrass; [3]): 0; Plant response rating (0 to 100), Corn (corn; Preemergence, 250 g ai/ha): 60; Corn plant response rating (corn; [3]): 60; Plant response rating (0 to 100), Cupgrass, Woolly (woolly cupgrass; Preemergence, 250 g ai/ha): 100
2 | CC(c1c(C(F)(F)F)nn(CC(F)(F)F)c1Cl)[S+]([O-])c1cccc[n+]1[O-] (stereo not shown) [Compound 46] | 100 | 70 | 0 |  | 0 | 0 | 80 | 80 | 100 | 100 | 100 | 100 | 0 | 55 | 95 | 95 | 
3 | [O-][n+]1cc(Cl)ccc1[S+]([O-])Cc1c(C(F)(F)F)nn(CC(F)(F)F)c1Cl (stereo not shown) [Compound 47] | 50 | 50 |  |  | 50 | 45 | 100 | 90 | 100 | 100 | 0 | 100 | 98 | 98 | 100 | 100 | Plant response rating (0 to 100), Blackgrass (blackgrass; Postemergence, 31 g ai/ha): 0; Plant response rating, Blackgrass (blackgrass; [6]): 20; Plant response rating, Blackgrass (blackgrass; [7]): 40; Plant response rating, Blackgrass (blackgrass; [8]): 70; Plant response rating (0 to 100), Corn (corn; Postemergence, 31 g ai/ha): 0; Plant response rating, Corn (corn; [6]): 0; Plant response rating, Corn (corn; [7]): 0; Plant response rating, Corn (corn; [8]): 60; Plant response rating (0 to 100), Cupgrass, Woolly (woolly cupgrass; Postemergence, 31 g ai/ha): 0; Plant response rating, Cupgrass, Woolly (woolly cupgrass; [6]): 0; Plant response rating, Cupgrass, Woolly (woolly cupgrass; [7]): 0; Plant response rating, Cupgrass, Woolly (woolly cupgrass; [8]): 50
4 | Cn1nc(C(F)(F)F)c(C(Cl)S(=O)(=O)c2cccc[n+]2[O-])c1OC(F)F (stereo not shown) [Compound 51] | 90 | 80 | 100 | 40 | 0 | 0 | 70 | 0 | 90 | 100 | 100 | 100 | 50 | 50 | 90 | 100 | 
5 | Cn1nc(C(F)(F)F)c(C[S+]([O-])c2ccc(F)c[n+]2[O-])c1Cl (stereo not shown) [Compound 54] | 50 | 0 | 30 | 0 | 80 | 55 | 85 | 85 |  | 85 | 100 | 100 | 85 | 98 | 95 | 98 | 
6 | Cn1nc(C(F)(F)F)c(C[S+]([O-])c2cccc[n+]2[O-])c1OCC(F)F (stereo not shown) [Compound 75] | 100 | 60 | 100 | 100 | 60 | 60 | 85 | 85 | 100 | 100 | 100 | 100 | 95 | 98 | 100 | 100 | 
7 | C#CCOc1c(C[S+]([O-])c2cccc[n+]2[O-])c(C(F)(F)F)nn1C (stereo not shown) [Compound 76] | 100 | 0 | 100 | 0 | 80 | 0 | 70 | 0 | 100 | 100 | 100 | 100 | 100 | 100 | 95 | 100 | 
8 | Cn1nc(C(F)(F)C(F)(F)F)c(C[S+]([O-])c2ccc(Cl)c[n+]2[O-])c1OCC(F)(F)F (stereo not shown) [Compound 92] | 100 | 85 | 100 | 100 | 95 | 75 | 90 | 65 | 100 | 100 | 100 | 100 | 98 | 98 | 98 | 100 | 
